Laboratory results as given in patent publication US20210196731A1, “COMPOSITIONS AND METHODS FOR TREATING OCULAR INFLAMMATION AND OCULAR SCARRING” (priority 2018, published 2021).

Experiments:
Format in all cases: cell-based, human
HTCFs = experiment: Cytotoxicity assay, in situ fluorescence-based LIVE/DEAD (fluorescein diacetate/propidium iodide)
Protocol: To assess the relative cellular viability between different experimental conditions, an in situ fluorescence-based LIVE/DEAD assay was used. This is a well reported method for estimating the cytotoxicity of an intervention. In brief, two florescent dyes, fluorescein diacetate and propidium iodide, are added to the culture media surrounding the collagen constructs. Fluorescein diacetate is converted into a […] fluorescent molecule by esterases within living cells. Propidium iodide (red) cannot pass through a viable cell's membrane, however it can penetrate disordered areas of dead cell membranes and then intercalates with the nuclear DNA. After a 5 min incubation with the staining solution, collagen constructs were washed with PBS and immediately imaged on a laser-scanning confocal microscope (A1R HD Nikon Instruments Inc., Tokyo, Japan). Ten random frames were taken with the 20× objective per tissue section, with three tissue sections imaged per patient cell line and treatment group. The laser intensity settings were kept consistent between samples to facilitate consistent comparison between replicates.
Using ImageJ, blue signals were counted within every frame and counted as living cells. The same was done for red signals, and these were counted as dead cells. The ratio of living (blue) to total (blue+red) cells was recorded.

collagen 1 = experiment: Western blot of HTCF protein lysate, collagen 1; conditions: ASA 500 or 1000 μg/ml, APHS 12 μg/ml, with or without gentamicin 250 or 500 μg/ml, 48 hrs
Protocol: (§1) Cells were lysed in lysis buffer (PhosphoSafe Extraction Reagent, Novagen) containing a protease inhibitor cocktail (P2714, Sigma-Aldrich). Crude protein lysate was quantified using a Pierce BCA protein assay kit (ThermoFisher, Mississauga, ON) and 10 ug from each sample was resolved using a Novex WedgeWell 4-20% tris-glycine gel (Invitrogen). Using an iBlot Gel Transfer Device (IB1001, Invitrogen), the separated protein was transferred to a nitrocellulose membrane (1B301001, iBlot Transfer Stack, Invitrogen) which was then blocked with 5% (w/v) bovine serum albumin (Sigma-Aldrich) in Tris buffered saline (TBST) for 1 hour at room temperature. The membranes were incubated overnight at 4° C. with primary antibody diluted in TBST containing 5% BSA (w/vol). […] Visualization was accomplished by applying WesternBright Quantum chemiluminescent reagent (Advansta, Inc.), with GAPDH used as a protein loading control. Imaging and relative densiometric quantification was accomplished using a ChemiDoc MP System (Bio-Rad Laboratories, Inc.) connected to Image Lab (Version 6, Bio-Rad Laboratories, Inc.).

SMAD2/3 = experiment: Western blot of HTCF protein lysate, SMAD2/3; conditions: ASA 500 or 1000 μg/ml, APHS 12 μg/ml, 48 hrs
Protocol: as §1

SMILES	relative proportion of living to total cells (HTCFs; AHGFs, APHS 24 μg/ml, alone or with gentamicin 750 μg/ml)	AHGF-induced expression of collagen 1 (collagen 1)	AHGF-induced expression of SMAD2/3 (SMAD2/3)	relative proportion of living to total cells (HTCFs; AHGFs, ASA 1500 μg/ml, with or without gentamicin 750 μg/ml, mitomycin C 0.2 mg/ml for 1, 2 or 4 minutes)	relative proportion of living to total cells (HTCFs; Collagen Contraction Assay III conditions, ASA 1000 or 1500 μg/ml, with or without gentamicin, four days)
CCCCC#CCSc1ccccc1OC(C)=O [APHS, o-(acetoxyphenyl)hept-2-ynyl sulfide]	unchanged relative to the AHGFs control group	significantly reduced	significantly reduced	–	–
CC(=O)Oc1ccccc1C(=O)O [ASA, acetylsalicylic acid]	–	significantly reduced	significantly reduced	unchanged relative to vehicle control	unchanged relative to vehicle control
